Measured values taken from patent US9820992B2, “Method of treating non-small-cell lung cancer using pharmaceutical formulation containing thienotriazolodiazepine compounds” (ONCOETHIX GmbH, priority 2013, dated 2017).
“Also recorded” adds a separate entry of the source.

Assays:
[1] = tested on: H2228 cells; test: Concomitant combination with crizotinib (Chou & Talalay); format: cell-based; conditions: combined with crizotinib, 48 h concomitant exposure, CI<1 synergy, CI=1 additivity, CI>1 antagonist, called additive
Protocol: (§1) Five established NSCLC cell lines, HOP62, HOP92, A549, H2228, and H3122 harboring different oncogenic mutations for KRAS, LKB1, TP53 and ALK (FIG. 19) were exposed to increasing doses of compound (1-1) (OncoEthix SA, Switzerland) for 72 h and cell proliferation was evaluated by MTT assays. Results represent the mean±95% CI of at least 3 independent experiments performed in triplicate. Protein levels were analyzed by Western blot using commercial antibodies. For cell cycle analysis cells were stained with PI and analyzed using a FACScan flow cytometer after 24 h of treatment. RT-PCR was performed using Fast SYBR Green Master Mix on a StepOnePlus Real-Time PCR System. Results represent the mean±SD of at least 2 independent experiments, where *p<0.05 versus control cells (0.1% DMSO), employing Anova followed by Dunnett's Multiple Comparison Test. Concomitant compound (1-1) combination studies were performed in cell lines exposed for 48 h to increasing doses of compound (1-1) alone or in combination with everolimus or crizotinib, and assessed using the Chou & Talalay method. Combination Index (CI) was determined by median effect plot analysis using CalcuSyn software. CI<1 synergy, CI=1 additivity and CI>1 antagonist effects. Results represent the median and range of 3 independent experiments performed in triplicate.

[2] = tested on: NSCLC cell lines HOP62, HOP92, A549, H2228, H3122; test: MTT proliferation assay in NSCLC cell line panel; format: cell-based; conditions: five NSCLC cell lines
Protocol: as §1

[3] = tested on: H3122 tumor; test: H3122 tumor growth in nude mice; format: in vivo, male athymic NMRI nude mice; conditions: gavage, continuous
Protocol: 5.10^6 H3122 cells were injected in the flank of male athymic NMRI nude mice, and mice were randomized to 3 groups (8 mice/group) when tumor volume reach 100 mm^3; vehicle (PBS, once daily, oral continuous), Compound (1-1) (50 mg/kg/bidaily, gavage, continuous), or crizotinib (25 mg/kg/daily, gavage, continuous).

[4] = tested on: C-MYC; test: C-MYC protein and mRNA levels in NSCLC cell lines (Western blot, RT-PCR); format: cell-based; conditions: NSCLC cell lines (Example 7)
Protocol: (§2) Five established NSCLC cell lines (i.e. H2228, H3122, A549, HOP62 and HOP92) were exposed to increasing doses of compound (1-1) (OncoEthix SA, Switzerland). Effect on cell viability was determined by the MTT assay after 72 h exposure. The growth inhibition (GI) 50% values were determined by GraphPad Prism 5.0 software. And protein levels were analyzed by Western Blot using commercial antibodies. RNA was extracted with the Qiagen RNAEasy kit and reverse-transcribed using the Superscript First-Strand Synthesis System for RT-PCR kit following manufacturer's instructions. RT-PCR was performed using Fast SYBR Green Master Mix on a StepOnePlus Real-Time PCR System.

[5] = tested on: H3122 cells; test: MTT cell viability/proliferation assay, 72 h; format: cell-based; conditions: Homo sapiens, NCI-H3122, H3122 cells (EML4-ALK-positive), 72-h exposure
Protocol: as §2, §1

[6] = tested on: A549 cells; test: MTT cell viability/proliferation assay, 72 h; format: cell-based
Protocol: as §2, §1

[7] = tested on: H2228 cells; test: MTT cell viability/proliferation assay, 72 h; format: cell-based; conditions: Homo sapiens, NCI-H2228, H2228 cells (EML4-ALK-positive), 72-h exposure
Protocol: as §2, §1

[8] = tested on: C-MYC in HOP92 cells; test: C-MYC mRNA and protein levels in HOP92 cells; format: cell-based; conditions: 500 nM, after 4 hours, maintained after 24 hours
Protocol: as §1

[9] = tested on: N-MYC mRNA in H3122 cells; test: N-MYC mRNA levels in H3122 cells (RT-PCR); format: cell-based
Protocol: as §2
Five established NSCLC cell lines, HOP62, HOP92, A549, H2228, and H3122 harboring different oncogenic mutations for KRAS, LKB1, TP53 and ALK (FIG. 19) were exposed to increasing doses of compound (1-1) (OncoEthix SA, Switzerland) for 72 h and cell proliferation was evaluated by MTT assays. […] Protein levels were analyzed by Western blot using commercial antibodies. For cell cycle analysis cells were stained with PI and analyzed using a FACScan flow cytometer after 24 h of treatment. […] Concomitant compound (1-1) combination studies were performed in cell lines exposed for 48 h to increasing doses of compound (1-1) alone or in combination with everolimus or crizotinib, and assessed using the Chou & Talalay method. […]

[10] = tested on: HOP62 cells; test: Concomitant combination with everolimus (Chou & Talalay); format: cell-based; conditions: 48 h concomitant
Protocol: as §1

[11] = tested on: A549 cells; test: as above; format: cell-based; conditions: 48 h concomitant
Protocol: as §1

[12] = tested on: H2228 cells; test: as above; format: cell-based; conditions: 48 h concomitant
Protocol: as §1

[13] = tested on: HOP92 cells; test: as above; format: cell-based; conditions: 48 h concomitant
Protocol: as §1

[14] = tested on: NSCLC cells; test: Cell cycle analysis (PI staining, flow cytometer); format: cell-based; conditions: 24 h exposure; dihydrate
Protocol: as §1

[15] = tested on: N-MYC mRNA in HOP62 cells; test: N-MYC mRNA levels in HOP62 cells (RT-PCR); format: cell-based; conditions: 500 nM, after 4 hours, maintained after 24 hours
Protocol: as §1

[16] = tested on: STAT3; test: Cell signaling pathways assessment (Western blot); format: cell-based; conditions: down-regulation after 24 h and up to 72 h exposure
Protocol: as §2

GI50 ([2]; 72 h-exposure, read-out: GI50 values across the cell line panel)	GI50 [5]	GI50 ([6]; Homo sapiens, A549, EML4-ALK-negative (A49) cell line, 72 h exposure, MTT)	GI50 [7]	Compound	Combination Index (CI) [1]	cytostatic effects in NSCLC cell lines ([2]; 72 h)	tumor growth in H3122 tumor bearing-mice ([3]; 50 mg/kg/bidaily, vs vehicle, dihydrate)	C-MYC protein and mRNA levels [4]	effects in A549 cells ([6]; A549 cells with concurrent KRAS and LKB1 mutations)	C-MYC mRNA and protein levels [8]	N-MYC mRNA levels ([9]; EML4-ALK-positive H3122 cells (Example 7))	N-MYC mRNA levels ([9]; H3122 cells, 500 nM, after 4 hours, maintained after 24 hours)	combination effect with everolimus [10]	combination effect with everolimus [11]	combination effect with everolimus [12]	combination effect with everolimus [13]	percentage of cells in S phase [14]	N-MYC mRNA levels [15]	STAT3 regulation [16]	tumor growth in H3122 tumor bearing-mice ([3]; 25 mg/kg/daily)
100 to 700 nM	627 nM	432 nM	629 nM	Cc1sc2c(c1C)C(c1ccc(Cl)cc1)=N[C@@H](CC(=O)Nc1ccc(O)cc1)c1nnc(C)n1-2 [Compound (1-1), 2-[(6S)-4-(4-chlorophenyl)-2,3,9-trimethyl-6H-thienol[3,2-f]-[1,2,4]triazolo[4,3-a][1,4]diazepin-6-yl]-N-(4-hydroxyphenyl)acetamide dihydrate]	0.9	cytostatic effects in 4 out of 5 NSCLC cell lines	inhibited tumor growth to a similar extent as crizotinib; also recorded: slowed tumor progression	not altered	abrogate compound (1-1) effects	rapid downregulation	down-regulation	rapid downregulation	additive/synergistic effects	additive/synergistic effects	additive/synergistic effects	additive/synergistic effects	reduction in the percentage of cells in S phase; also recorded: reduction of the S phase cell fraction	rapid downregulation	transient upregulation of STATS with a subsequent down-regulation	–
–	–	–	–	C[C@@H](Oc1cc(-c2cnn(C3CCNCC3)c2)cnc1N)c1c(Cl)ccc(F)c1Cl [crizotinib, reference compound]	–	–	–	–	–	–	–	–	–	–	–	–	–	–	–	inhibited tumor growth to a similar extent
